Laboratory results as given in US20260166016A1, “GPR139 RECEPTOR AGONIST, PREPARATION METHOD THEREFOR, AND APPLICATION THEREOF” (NEUBO APPTECH CO., LTD., priority 2022, published 2026).
pEC50: −log10 of the molar value.

Target: T1, GPR139 (Homo sapiens, UniProt Q6DWJ6)
T1 construct: expressed in transfected cells; host or cells: HEK293
T1 sequence (Q6DWJ6 1-353): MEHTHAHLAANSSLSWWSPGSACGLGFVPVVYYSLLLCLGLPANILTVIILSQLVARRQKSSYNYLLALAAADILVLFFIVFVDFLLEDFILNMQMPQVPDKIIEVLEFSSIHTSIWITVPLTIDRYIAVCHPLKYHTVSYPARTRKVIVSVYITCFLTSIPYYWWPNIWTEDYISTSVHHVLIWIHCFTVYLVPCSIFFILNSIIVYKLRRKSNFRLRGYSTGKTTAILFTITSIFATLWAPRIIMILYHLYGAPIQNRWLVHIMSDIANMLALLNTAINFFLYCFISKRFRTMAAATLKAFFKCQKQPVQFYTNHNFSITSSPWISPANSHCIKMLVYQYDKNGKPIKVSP
Test: GPR139 FLIPR cell calcium signal detection in GPR139-transfected HEK293 cells
Format: cell-based
Conditions: HEK293 cells transfected with GPR139, read-out: EC50 values of compounds for GPR139
Procedure: HEK293 cells were grown in a 10 cm culture dish containing DMEM complete medium (containing glutamine, sodium pyruvate, penicillin/streptomycin, 10% fetal bovine serum) and incubated at 37° C. in a 5% CO2 incubator until 90% confluency. Then subculture twice a week at a ratio of 1:5. During cell passaging, the culture medium was first completely removed, washed once with 4 mL of DPBS, and then 3 mL of trypsin digestion solution was added and mixed well. When cell dissociation was observed, the trypsin solution was aspirated and 5 mL of complete DMEM medium was added. The cells were dispersed by pipetting, and 1 mL of cell suspension was added to each of five new 10 cm culture dishes. Then, 7 mL of complete DMEM medium was supplemented to each dish. After mixing, the cells were cultured at 37° C. in a 5% CO2 incubator.
On the transfection day, cells were digested and seeded into one 10 cm culture dish at appropriate density. 6 mL of DMEM/F12 medium (containing glutamine, sodium pyruvate, HEPES, and fetal bovine serum) was added, and the cells were cultured for 5 hours at 37° C. in 5% CO2. A 50 mL sterile centrifuge tube (Tube A) was taken, and 1 mL of serum-free DMEM/F12 medium (containing glutamine, sodium pyruvate, and HEPES) was added, followed by 10 μg of GPR139 DNA. The mixture was mixed well. Another 50 mL sterile centrifuge tube (Tube B) was taken, and 1 mL of serum-free DMEM medium (containing glutamine, sodium pyruvate, and HEPES) was added, followed by 60 μL of Fugene HD transfection reagent. The mixture was mixed well. 1 mL of Fugene HD transfection reagent from Tube B was transferred to Tube A, mixed well, and incubated at room temperature for 20 minutes. 2 mL of DMEM/F12 medium (containing glutamine, sodium pyruvate, HEPES, and fetal bovine serum) was added to Tube A. After mixing, 4 mL of mixture from Tube A was transferred to the prepared 10 cm dish (total volume 10 mL). The cells were cultured for 20-24 hours at 37° C. in 5% CO2.
The next day, the transfected cells were digested with trypsin digestion solution, and appropriate DMEM/F12 medium (containing glutamine, sodium pyruvate, HEPES, penicillin/streptomycin, fetal bovine serum) was added. The cells were seeded into Matrigel coated 384-well plates with a cell density of 6.67×10^6 cells/mL, 30 μL/well. The 384-well plates were cultured at 37° C. in 5% CO2.
On the third day, 10 μL/well of FLIPR dye (diluted in HEPES solution containing Pluronic and Probenecid) was added to the 384-well cell plate. And the plate was incubated for 40 minutes at 37° C. in 5% CO2. Diluted compounds were added to the cell plate and calcium signals were measured using a FLIPR plate reader.
Data were analyzed using XL-fit software to obtain EC50 values for each compound.

Structure (SMILES)	pEC50
C[C@H](NC(=O)CNC(=O)c1cc(Cl)cc(F)n1)c1c(F)cc(F)cc1F [NRB225]	7.00 to 10.00
C[C@H](NC(=O)CNC(=O)c1cc(Cl)cc(C(F)(F)F)n1)c1c(F)cccc1F [NRB222]	6.00 to 7.00
COc1cc(Cl)cc(C(=O)NCC(=O)N[C@@H](C)c2c(F)cccc2F)n1 [NRB221]	6.00 to 7.00
C[C@H](NC(=O)CNC(=O)c1cccc(Cl)c1)c1cc(F)ccc1F [NRB178]	7.00 to 10.00
C[C@H](NC(=O)CNC(=O)c1cc(F)cc(F)c1)c1c(F)cccc1F [NRB202]	7.00 to 10.00
C[C@H](NC(=O)CNC(=O)c1cccc(Cl)c1)c1cccc(F)c1F [NRB180]	7.00 to 10.00
C[C@H](NC(=O)CNC(=O)c1cccc(F)c1)c1ccccc1F [NRB153]	7.00 to 10.00

The remaining lines, values ahead:

pEC50	Structure (SMILES)
7.00 to 10.00	COc1cc(F)nc(C(=O)NCC(=O)N[C@@H](C)c2ccccc2F)c1 [NRB211]
6.00 to 7.00	C[C@H](NC(=O)CNC(=O)c1cccc(F)c1)c1c(F)cccc1F [NRB154]
7.00 to 10.00	COc1cc(F)nc(C(=O)NCC(=O)N[C@@H](C)c2c(F)cccc2F)c1 [NRB215]
6.00 to 7.00	C[C@H](NC(=O)CNC(=O)c1cc(F)cc(C(F)(F)F)n1)c1c(F)cccc1F [NRB214]
6.00 to 7.00	C[C@H](NC(=O)CNC(=O)c1cc(F)ccn1)c1ccccc1F [NRB156]
7.00 to 10.00	C[C@H](NC(=O)CNC(=O)c1cc(Cl)cc(Cl)c1)c1c(F)cccc1F [NRB216]
6.00 to 7.00	C[C@H](NC(=O)CNC(=O)c1cc(Cl)cc(C(F)(F)F)n1)c1c(F)cc(F)cc1F [NRB227]
